pIC50: −log10 of the molar value. Marks after values point to notes of the source that are not given here.
What was measured:
Assay type in all cases: cell-based
[1] = tested on: TNF-α; assay: Whole bovine blood assay, LPS-induced TNF-α; settings: fresh whole bovine blood, LPS stimulant, top drug concentration 250 μM
Summary of the method: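 Fresh heparinized bovine whole blood was preincubated with compound 4 h at 37 °C, then stimulated with LPS (final 1 μg/mL) for 18 h at 37 °C. Plasma TNF-α was quantified by MSD U-Plex chemiluminescent immunoassay, normalized to total protein (BCA), and IC50 taken for LPS-induced TNF-α inhibition.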

[2] = tested on: BRD pathogens, M. haemolytica and P. multocida; assay: MIC screening panel, BRD pathogens (CLSI broth micro-dilution); settings: at least one BRD pathogenic strain, top concentration 64 μg/mL; for MIC: read-out: MIC flag (*) for BRD pathogenic strains
From the text: Primary screening of the compounds of the invention included the evaluation of antibacterial activity of analogs through determination of microbial inhibition concentration (MIC) as per CLSI guidelines. The screening panel included the relevant BRD pathogens: 1) M. haemolytica (e.g., 12726, 46571 and 49023, all AHDRCC; and 33396 (ATCC)); and 2) P. multocida (e.g., 34135 and 46572 (both AHDRCC) and 43137 (ATCC)). In some instances, H. somni (A700025K) pathogens were also included in the screening panel. The AHDRCC strains originated from the Zoetis BRD/SRD surveillance program and refer to the Animal Health Development and Research Culture Collection. In addition, the screen assessed S. aureus (29213 ATCC) as a representative Gram-positive isolate, E.faecalis (19433 ATCC) as a commensal gram-positive gastrointestinal bacterium and E. coli (100, 3110 and 25922 (ATCC)) for the evaluation of efflux potential. The screening panel BRD pathogens were assessed in determining antibacterial activity of the Formula (1) compounds.
All relevant BRD pathogens were initially screened at a top concentration of 64 μg/mL of a Formula (1) compound in an eleven-point dilution series. […] If an Example was purified further, the MICs moved […] essentially two dilutions across all strains tested in the screening panel.
In-Vitro MIC Model Compounds were analyzed for antibacterial activity against a panel of animal health specific gram-positive and gram-negative clinical strains by diluting compounds in DMSO to an appropriate stock concentration to determine the Minimal Inhibitory Concentration (MIC) via a semi-automated broth micro-dilution method (CLSI reference method) with QC strains and anti-microbial agent(s). Specifically, bacteria were grown overnight on TSA w/5% sheep blood agar plates and diluted in saline buffer to a McFarland Standard 0.5, then further diluted in cation-ion adjusted Mueller Hinton Broth to a final concentration of approximately 5×10^5 CFU/mL. 100 μL of inoculated media was added to 96-well plate(s) with 3 μL of serially diluted compound in each row. Depending on strain (see CLSI reference method), bacteria were incubated 18-22 hours at 35-37° C. in ambient air, with 5% CO2 or anaerobically (up to 48 hours).

[3] = tested on: IL-6; assay: Whole bovine blood assay, LPS-induced IL-6; settings: fresh whole bovine blood, LPS stimulant, top drug concentration 250 μM

Molecule	pIC50 [1]	MIC flag (*) for BRD pathogenic strains ([2]; Table C)	pIC50 [3]	MIC flag (*) for BRD pathogenic strains ([2]; Table B)	pIC50 ([1]; Bos taurus)	MIC ([2]; Table B)	pIC50 ([3]; Bos taurus)
(2R,3S,4R,5R,8R,10R,11R, 12S, 13S, 14R)-2-ethyl-3,4, 10-trihydroxy-13-[(2R,4R,5S,6S)-5-hydroxy-4-methoxy-4,6-dimethyl-5-(piperidin-1-ylmethyl) oxan-2-yl]oxy-11-[(2R,3S,4R,6S)-3-hydroxy-6-methyl-4-[methyl-[(3-methylphenyl) sulfamoyl]-amino]oxan-2-yl]oxy-3,5,8, 10, 12,14-hexamethyl-15-oxo-1-oxa-6-azacyclopentadecane [Example C-26]	4.80	C-26* (MIC ≤64 μg/mL for at least one BRD pathogenic strain)	4.60	–	–	–	–
N-((2S,3R,4S,6R)-2-(((2R,3S,4R,5R,8R,10R,11R,12S,13S,14R)-2-ethyl-3,4,10-trihydroxy-13-(((2R,4R,5S,6S)-5-hydroxy-4-methoxy-4,6-dimethyl-5-((propylamino)methyl)tetrahydro-2H-pyran-2-yl)oxy)-3,5,6,8,10,12,14-heptamethyl-15-oxo-1-oxa-6-azacyclopentadecan-11-yl)oxy)-3-(4-fluorophenoxy)-6-methyltetrahydro-2H-pyran-4-yl)-N, 1-dimethyl-1H-imidazole-2-sulfonamide [Example B-162]	5.10	–	5.05	B-162* (MIC ≤64 μg/mL for at least one BRD pathogenic strain)	–	–	–
CCCNC[C@]1(O)[C@H](C)O[C@@H](O[C@H]2[C@H](C)[C@@H](O[C@@H]3O[C@H](C)C[C@H](N(C)S(=O)(=O)c4ccc([N+](=O)[O-])cc4)[C@H]3O)[C@](C)(O)C[C@@H](C)CN[C@H](C)[C@@H](O)[C@](C)(O)[C@@H](CC)OC(=O)[C@@H]2C)C[C@@]1(C)OC [Example B-2, N-((2S,3R,4S,6R)-2-(((2R,3S,4R,5R,8R,10R,11R,12S,13S,14R)-2-ethyl-3,4,10-trihydroxy-13-(((2R,4R,5S,6S)-5-hydroxy-4-methoxy-4,6-dimethyl-5-((propylamino)methyl)tetrahydro-2H-pyran-2-yl)oxy)-3,5,8,10, 12,14-hexamethyl-15-oxo-1-oxa-6-azacyclopentadecan-11-yl)oxy)-3-hydroxy-6-methyltetrahydro-2H-pyran-4-yl)-N-methyl-4-nitrobenzenesulfonamide]	–	–	–	–	4.43	≤ 64 µg/mL	4.34
(2R,3S,4R,5R,8R,10R,11R,12S, 13S, 14R)-2-ethyl-3,4, 10-trihydroxy-13-[(2R,4R,5S,6S)-5-hydroxy-4-methoxy-4,6-dimethyl-5-(piperidin-1-ylmethyl) oxan-2-yl]oxy-11-[(2R,3S,4R,6S)-3-hydroxy-4-[(4-methoxyphenyl) sulfamoyl-methylamino]-6-methyloxan-2-yl]oxy-3,5,8,10, 12,14-hexamethyl-15-oxo-1-oxa-6-azacyclopentadecane [Example C-27]	4.14	C-27* (MIC ≤64 μg/mL for at least one BRD pathogenic strain)	4.14	–	–	–	–
CC[C@H]1OC(=O)[C@H](C)[C@@H](O[C@H]2C[C@@](C)(OC)[C@](O)(CNCCc3ccc(C(F)(F)F)cc3)[C@H](C)O2)[C@H](C)[C@@H](O[C@@H]2O[C@H](C)C[C@H](N(C)S(=O)(=O)c3ccc(Cl)cc3)[C@H]2O)[C@](C)(O)C[C@@H](C)CN[C@H](C)[C@@H](O)[C@]1(C)O [Example B-31, 4-chloro-N-((2S,3R,4S,6R)-2-(((2R,3S,4R,5R,8R,10R,11R, 12S, 13S, 14R)-2-ethyl-3,4,10-trihydroxy-13-(((2R,4R,5S,6S)-5-hydroxy-4-methoxy-4,6-dimethyl-5-(((4-(trifluoromethyl)phenethyl)amino)methyl)tetrahydro-2H-pyran-2-yl)oxy)-3,5,8,10, 12,14-hexamethyl-15-oxo-1-oxa-6-azacyclopentadecan-11-yl)oxy)-3-hydroxy-6-methyltetrahydro-2H-pyran-4-yl)-N-methylbenzenesulfonamide]	–	–	–	–	5.40	≤ 64 µg/mL	5.15
(2R,3S,4R,5R,8R,10R,11R, 12S, 13S, 14R)-11-[(2R,3S,4R,6S)-4-[[3-(dimethylamino)phenyl]sulfamoyl-methylamino]-3-hydroxy-6-methyloxan-2-yl]oxy-2-ethyl-3,4,10-trihydroxy-13-[(2R,4R,5S,6S)-5-hydroxy-4-methoxy-4,6-dimethyl-5-(piperidin-1-ylmethyl) oxan-2-yl]oxy-3,5,8,10, 12, 14-hexamethyl-15-oxo-1-oxa-6-azacyclopentadecane [Example C-25]	4.43	C-25* (MIC ≤64 μg/mL for at least one BRD pathogenic strain)	–	–	–	–	–
CCCNC[C@]1(O)[C@H](C)OC(O[C@H]2[C@H](C)[C@@H](O[C@@H]3O[C@H](C)C[C@H](N(C)S(=O)(=O)c4ccc(-c5cnco5)s4)[C@H]3Oc3ccc(OC)cc3)[C@](C)(O)C[C@@H](C)CN[C@H](C)[C@@H](O)[C@](C)(O)[C@@H](CC)OC(=O)[C@@H]2C)C[C@@]1(C)OC (stereo partly drawn) [Example B-120, N-[(2S,3R,4S,6R)-2-[[(2R,3S,4R,5R,8R,10R,11R,12S,13S, 14R)-2-ethyl-3,4,10-trihydroxy-13-[(4R,5S,6S)-5-hydroxy-4-methoxy-4,6-dimethyl-5-(propylaminomethyl)oxan-2-yl]oxy-3,5,8, 10, 12, 14-hexamethyl-15-oxo-1-oxa-6-azacyclopentadec-11-yl]oxy]-3-(4-methoxyphenoxy)-6-methyloxan-4-yl]-N-methyl-5-(1,3-oxazol-5-yl)thiophene-2-sulfonamide]	–	–	–	–	–	≤ 64 µg/mL	5.22
CC[C@H]1OC(=O)[C@H](C)[C@@H](O[C@H]2C[C@@](C)(OC)[C@](O)(CNC3CC3)[C@H](C)O2)[C@H](C)[C@@H](O[C@@H]2O[C@H](C)C[C@H](N(C)S(=O)(=O)c3ccc(Cl)cc3)[C@H]2O)[C@](C)(O)C[C@@H](C)CN[C@H](C)[C@@H](O)[C@]1(C)O [Example B-23, 4-chloro-N-((2S,3R,4S,6R)-2-(((2R,3S,4R,5R,8R,10R,11R,12S,13S, 14R)-13-(((2R,4R,5S,6S)-5-((cyclopropylamino)methyl)-5-hydroxy-4-methoxy-4,6-dimethyltetrahydro-2H-pyran-2-yl)oxy)-2-ethyl-3,4, 10-trihydroxy-3,5,8, 10, 12,14-hexamethyl-15-oxo-1-oxa-6-azacyclopentadecan-11-yl)oxy)-3-hydroxy-6-methyltetrahydro-2H-pyran-4-yl)-N-methylbenzenesulfonamide]	–	–	–	–	5.52	≤ 64 µg/mL	4.89
CC[C@H]1OC(=O)[C@H](C)[C@@H](O[C@H]2C[C@@](C)(OC)[C@](O)(CNCCc3ccc(C(F)(F)F)cc3)[C@H](C)O2)[C@H](C)[C@@H](O[C@@H]2O[C@H](C)C[C@H](N(C)S(=O)(=O)Nc3ccc(C(F)(F)F)cc3)[C@H]2O)[C@](C)(O)C[C@@H](C)CN[C@H](C)[C@@H](O)[C@]1(C)O [Example B-79]	5.15	–	5.15	B79* (MIC ≤64 μg/mL for at least one BRD pathogenic strain)	–	–	–
(2R,3S,4R,5R,8R,10R,11R,12S,13S,14R)-2-ethyl-3,4,10-trihydroxy-13-[(2R,4R,5S,6S)-5-hydroxy-4-methoxy-4,6-dimethyl-5-(propylaminomethyl) oxan-2-yl]oxy-11-[(2S,3R,4S,6R)-3-hydroxy-6-methyl-4-[methyl-[[4-(trifluoromethyl)phenyl]sulfamoyl]-amino]oxan-2-yl]oxy-3,5,6,8,10,12,14-heptamethyl-15-oxo-1-oxa-6-azacyclopentadecane [Example B-159]	5.40	–	–	B-159* (MIC ≤64 μg/mL for at least one BRD pathogenic strain)	–	–	–

Source: patent US20250236616A1, “IMMUNOMODULATING AZALIDES” (Zoetis Services LLC, priority 2021, published 2025)
